Laboratory results from US8969386B2, “Modulators of CFTR” (Vertex Pharmaceuticals Incorporated, priority 2007, dated 2015).
pEC50: −log10 of the molar value.

Biological target: T1, ΔF508-CFTR (Homo sapiens, UniProt P13569, DEL508-508)
T1 construct: expressed in transfected cells
Assay: ΔF508-CFTR correction, membrane potential optical (FRET/VIPR) assay
Assay type: cell-based
Settings: NIH3T3 mouse fibroblasts stably expressing ΔF508-CFTR; for Emax: read-out: % Efficacy
From the text: Assays for Detecting and Measuring ΔF508-CFTR Correction Properties of Compounds
Membrane potential optical methods for assaying ΔF508-CFTR modulation properties of compounds
The optical membrane potential assay utilized voltage-sensitive FRET sensors described by Gonzalez and Tsien (See Gonzalez, J. E. and R. Y. Tsien (1995) “Voltage sensing by fluorescence resonance energy transfer in single cells” Biophys J 69(4): 1272-80, and Gonzalez, J. E. and R. Y. Tsien (1997) “Improved indicators of cell membrane potential that use fluorescence resonance energy transfer” Chem Biol 4(4): 269-77) in combination with instrumentation for measuring fluorescence changes such as the Voltage/Ion Probe Reader (VIPR) (See Gonzalez, J. E., K. Oades, et al. (1999) “Cell-based assays and instrumentation for screening ion-channel targets” Drug Discov Today 4(9): 431-439).
These voltage sensitive assays are based on the change in fluorescence resonant energy transfer (FRET) between the membrane-soluble, voltage-sensitive dye, DiSBAC2(3), and a fluorescent phospholipid, CC2-DMPE, which is attached to the outer leaflet of the plasma membrane and acts as a FRET donor. Changes in membrane potential (Vm) cause the negatively charged DiSBAC2(3) to redistribute across the plasma membrane and the amount of energy transfer from CC2-DMPE changes accordingly. The changes in fluorescence emission were monitored using VIPR™ II, which is an integrated liquid handler and fluorescent detector designed to conduct cell-based screens in 96- or 384-well microtiter plates.
1. Identification of Correction Compounds
To identify small molecules that correct the trafficking defect associated with ΔF508-CFTR; a single-addition HTS assay format was developed. The cells were incubated in serum-free medium for 16 hrs at 37° C. in the presence or absence (negative control) of test compound. As a positive control, cells plated in 384-well plates were incubated for 16 hrs at 27° C. to “temperature-correct” ΔF508-CFTR. The cells were subsequently rinsed 3× with Krebs Ringers solution and loaded with the voltage-sensitive dyes. To activate ΔF508-CFTR, 10 μM forskolin and the CFTR potentiator, genistein (20 μM), were added along with Cl^−-free medium to each well. The addition of Cl^−-free medium promoted Cl^− efflux in response to ΔF508-CFTR activation and the resulting membrane depolarization was optically monitored using the FRET-based voltage-sensor dyes.
NIH3T3 mouse fibroblasts stably expressing ΔF508-CFTR are used for optical measurements of membrane potential. The cells are maintained at 37° C. in 5% CO2 and 90% humidity in Dulbecco's modified Eagle's medium supplemented with 2 mM glutamine, 10% fetal bovine serum, 1×NEAA, β-ME, 1× pen/strep, and 25 mM HEPES in 175 cm^2 culture flasks. For all optical assays, the cells were seeded at 30,000/well in 384-well matrigel-coated plates and cultured for 2 hrs at 37° C. before culturing at 27° C. for 24 hrs for the potentiator assay. For the correction assays, the cells are cultured at 27° C. or 37° C. with and without compounds for 16-24 hours Electrophysiological Assays for assaying ΔF508-CFTR modulation properties of compounds

T1 sequence (P13569 with tags, fused parts or gaps DEL508-508): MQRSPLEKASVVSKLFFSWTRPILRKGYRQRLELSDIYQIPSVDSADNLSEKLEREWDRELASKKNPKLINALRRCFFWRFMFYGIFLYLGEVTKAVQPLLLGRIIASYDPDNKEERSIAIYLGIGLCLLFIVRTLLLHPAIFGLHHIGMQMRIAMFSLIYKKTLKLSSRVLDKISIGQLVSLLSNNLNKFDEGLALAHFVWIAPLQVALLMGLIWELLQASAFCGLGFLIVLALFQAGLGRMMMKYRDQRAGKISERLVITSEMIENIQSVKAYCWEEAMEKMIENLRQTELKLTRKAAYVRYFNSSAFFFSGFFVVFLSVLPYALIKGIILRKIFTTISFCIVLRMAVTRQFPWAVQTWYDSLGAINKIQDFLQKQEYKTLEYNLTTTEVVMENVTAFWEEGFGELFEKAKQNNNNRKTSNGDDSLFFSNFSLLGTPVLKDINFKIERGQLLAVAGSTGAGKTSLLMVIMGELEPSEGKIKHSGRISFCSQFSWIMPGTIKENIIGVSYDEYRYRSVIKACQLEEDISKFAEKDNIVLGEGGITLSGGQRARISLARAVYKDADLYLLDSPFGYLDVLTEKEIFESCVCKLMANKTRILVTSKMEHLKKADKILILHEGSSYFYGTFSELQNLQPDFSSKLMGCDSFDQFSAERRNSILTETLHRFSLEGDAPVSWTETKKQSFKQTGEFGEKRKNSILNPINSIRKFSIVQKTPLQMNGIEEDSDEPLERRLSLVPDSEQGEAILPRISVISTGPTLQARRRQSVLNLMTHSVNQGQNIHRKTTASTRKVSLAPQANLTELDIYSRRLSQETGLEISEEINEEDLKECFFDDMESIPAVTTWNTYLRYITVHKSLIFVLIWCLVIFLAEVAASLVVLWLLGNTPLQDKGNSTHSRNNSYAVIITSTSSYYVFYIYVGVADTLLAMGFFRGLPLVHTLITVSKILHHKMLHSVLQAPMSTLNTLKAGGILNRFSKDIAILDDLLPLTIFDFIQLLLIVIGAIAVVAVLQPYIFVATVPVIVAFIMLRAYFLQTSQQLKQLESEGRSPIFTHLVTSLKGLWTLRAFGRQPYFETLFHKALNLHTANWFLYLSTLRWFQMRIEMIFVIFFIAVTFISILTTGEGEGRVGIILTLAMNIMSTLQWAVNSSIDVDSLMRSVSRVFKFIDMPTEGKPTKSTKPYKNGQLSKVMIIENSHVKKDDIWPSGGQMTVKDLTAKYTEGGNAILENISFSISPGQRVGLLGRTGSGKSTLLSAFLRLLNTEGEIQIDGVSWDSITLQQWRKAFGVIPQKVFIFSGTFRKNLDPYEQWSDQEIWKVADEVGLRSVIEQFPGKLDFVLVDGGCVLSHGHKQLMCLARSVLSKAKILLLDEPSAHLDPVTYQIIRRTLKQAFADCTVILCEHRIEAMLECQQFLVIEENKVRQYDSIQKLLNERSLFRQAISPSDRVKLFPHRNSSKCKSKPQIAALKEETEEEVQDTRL

| SMILES | pEC50 | Emax |
| --- | --- | --- |
| COc1ccc(-c2nc(NC(=O)C3(c4ccc5c(c4)OC(F)(F)O5)CC3)cc(C)c2C)cn1 [Compound 57] | > 5.70 | > 100% |
| COc1ncccc1-c1nc(NC(=O)C2(c3ccc4c(c3)OC(F)(F)O4)CC2)cc(C)c1C [Compound 56] | > 5.70 | > 100% |
| Cc1ccc(NC(=O)C2(c3ccc4c(c3)CCO4)CC2)nc1-c1ccc[nH]c1=O [Compound 84] | > 5.70 | 50 to 100% |
| Cc1ccc(NC(=O)C2(c3ccc4c(c3)OC(F)(F)O4)CC2)nc1-c1c[nH]c(=O)c(Cl)c1 [Compound 25] | > 5.70 | > 100% |
| Cc1ccc(NC(=O)C2(c3ccc4c(c3)OC(F)(F)O4)CC2)nc1-c1ccc(=O)[nH]c1O [Compound 28] | > 5.70 | 50 to 100% |
| CCOC(=O)NCCn1cc(-c2nc(NC(=O)C3(c4ccc5c(c4)OC(F)(F)O5)CC3)ccc2C)ccc1=O [Compound 81] | > 5.70 | > 100% |
| Cc1cc(-c2nc(NC(=O)C3(c4ccc5c(c4)OC(F)(F)O5)CC3)ccc2C)c(=O)n(CCO)c1 [Compound 116] | > 5.70 | > 100% |
| COc1ncc(C)cc1-c1cc(C)cc(NC(=O)C2(c3ccc4c(c3)OC(F)(F)O4)CC2)n1 [Compound 87] | > 5.70 | > 100% |
| COc1ncc(-c2nc(NC(=O)C3(c4ccc5c(c4)OC(F)(F)O5)CC3)cc(C)c2C)cc1C [Compound 104] | > 5.70 | 50 to 100% |
| Cc1ccc(NC(=O)C2(c3ccc4c(c3)OC(F)(F)O4)CC2)nc1-c1c[nH]c(=O)c(C(=O)O)c1 [Compound 23] | 5.30 to 5.70 | 50 to 100% |
| Cc1ccc(NC(=O)C2(c3ccc4c(c3)OC(F)(F)O4)CC2)nc1-c1c[nH]c(=O)c(F)c1 [Compound 39] | > 5.70 | 50 to 100% |
| COc1ccc(-c2nc(NC(=O)C3(c4ccc5c(c4)OC(F)(F)O5)CC3)ccc2C)cn1 [Compound 37] | > 5.70 | > 100% |
| Cc1ccc(NC(=O)C2(c3ccc4c(c3)CCO4)CC2)nc1-c1c[nH]c(=O)c(C)c1 [Compound 76] | > 5.70 | 50 to 100% |
| Cc1cc(NC(=O)C2(c3ccc4c(c3)OC(F)(F)O4)CC2)nc(-c2c[nH]c(=O)c(C)c2)c1C [Compound 111] | > 5.70 | > 100% |
| COc1ccc(C2(C(=O)Nc3ccc(C)c(-c4ccc(OC)nc4)n3)CC2)cc1 [Compound 2] | > 5.70 | 50 to 100% |
| COc1ccc(C2(C(=O)Nc3ccc(C)c(-c4ccnc(OC)c4)n3)CC2)cc1 [Compound 45] | > 5.70 | > 100% |
| COc1cc(C)c(-c2nc(NC(=O)C3(c4ccc5c(c4)OC(F)(F)O5)CC3)cc(C)c2C)cn1 [Compound 89] | > 5.70 | > 100% |
